Positions of bridges follow the written chain, without caps; N, C: chain ends. Non-standard residues stand in square brackets, D forms with d. Residues, ends and D or L forms follow the SMILES beside them. pS = N[C@@H](COP(=O)(O)O)C(=O)O
Experiments:
female CD-1 mice = experiment: Gastrointestinal transit in mice (charcoal meal); type: in vivo; details: oral gavage, % distance travelled by charcoal front
Protocol: The purpose of the assay was to test the effect of the guanylate cyclase C agonist peptides on in vivo gastrointestinal transit in mice.
For the assay, female CD-1 mice (n=10 per group) weighing 25-30 g were fasted overnight and given access to water ad libitum. Activated charcoal (20 g; 100 mesh; Sigma cat# 242276) was suspended in 200 mL gum arabic (100 mg/mL), and stirred for at least one hour. Test peptides were prepared in a 20 mM Tris pH 6.9 vehicle.
Test peptide and vehicle were administered in 200 μL doses by oral gavage. Seven minutes after dosing the test peptides, 200 μL of the charcoal/gum arabic suspension was dosed by oral gavage. […] The total length of the small intestine was measured from the pyloric junction to the ileocaecal junction. The distance travelled by the charcoal was measured from the pyloric junction to the charcoal front. The Distance Travelled (%) was determined as (distance travelled by charcoal/total length of the small intestine)×100. Data were entered into the GraphPad Prism software program and analyzed by ANOVA using a Bonferroni multiple comparison test post-hoc. Plots of data and ED50 were also determined using the GraphPad Prism software package.
The dose-dependent effects of acute doses of Peptide 4, Peptide 1, Peptide 2, the dephosphorylated form of Peptide 1 and the dephosphorylated form of Peptide 2 on GI transit were determined in female CD mice. […]

[1] = tested on: ligated rat duodenal loops; experiment: Fluid secretion in rat intestinal loops; type: in vivo, rats
Protocol: The effect of GC-C agonist peptides on secretion were studied by injecting GC-C agonist peptides described herein directly into an isolated loop in wild-type rats.
Loops were isolated by surgically ligating three loops in the small intestine of the rat. The methodology for ligated loop formation was similar to that described in (London et al., 1997, Am J Physiol, p. G93-105). The loops were roughly centered and at lengths of 1-3 cm. The loops were injected with 200 μl of either peptide/GC-C agonist (0.1-5 μg) or vehicle (20 mM Tris, pH 7.5 or Krebs Ringer, 10 mM Glucose, HEPES buffer (KRGH)). Following a recovery time of up to 90 minutes the loops were excised. Weights were recorded for each loop before and after removal of the fluid contained therein. The length of each loop was also recorded. A weight to length ratio (W/L) for each loop was calculated to determine the effects of the GC-C agonist peptide described herein on secretion. Loop fluid volume was also determined.
Data showing increases in fluid secretion, pH increase and bicarbonate secretion in ligated duodenal loops in rats are shown in FIG. 2 and Table 8. […] Table 8 provides the results in ligated rat duodenal loops using 2.5 μg of peptide per loop.

[2] = biological target: T1, Calf intestinal alkaline phosphatase (CIP) (Bos taurus, UniProt P19111); experiment: Alkaline phosphatase reaction (dephosphorylation of peptide substrates, LCMS); type: in vitro ADME; details: Alkaline phosphatase pH 8, 90 minutes at 37° C.
T1 construct: purchased New England BioLabs, Ipswich, Mass; M0290S
Protocol: (§1) For the alkaline phosphatase reactions, peptide stocks were prepared at 1 mg/mL in 0.1 M Tris-HCl pH 8, which were stored at −20° C. until assays were conducted. For the acid phosphatase reactions, peptide stocks were prepared at 1 mg/mL in 50 mM sodium phosphate pH 6, which was stored at −20° C. until assays were conducted.
(§2) Calf intestinal alkaline phosphatase (CIP) was obtained from New England BioLabs, Ipswich, Mass. Cat # M0290S. The CIP reaction solution was prepared by dilution with buffer (50 mM KCl, 10 mM Tris-HCl pH 8, 1 mM MgCl2, 50% glycerol) to 0.5 units/μL. The alkaline phosphatase reaction solutions were assembled in 20 μL quantities containing: • 2 μL 10× CIP buffer (1M NaCl, 500 mM Tris-HCl pH 8, 100 mM MgCl2) • 2 μL peptide stock (1 mg/mL) • 12 μL H2O • 4 μL alkaline phosphatase (0, 0.5 or 2 units)
(§3) The reaction solutions were mixed gently and incubated for 90 minutes at 37° C. These reaction solutions were stored at −20° C. until analysis. For analysis, the reaction solutions were diluted from 7.5 μL of CIP treated peptide to 50 μL with 0.1% formic acid in water to a final concentration of 10 μM.
(§4) Control reactions were assembled for enzyme activity containing 10 mM p-nitrophenylphosphate in place of peptide. After incubation, the reactions were diluted with 0.1 mL of 100 mM borate buffer pH 9 and read at the absorbance of 405 nm to monitor p-nitrophenol appearance.

[3] = tested on: T2, calf intestinal alkaline phosphatase (CIP); experiment: as above; type: in vitro ADME; details: calf intestinal alkaline phosphatase (CIP); Alkaline phosphatase pH 8, 90 minutes at 37° C.
T2 construct: purchased New England BioLabs, Ipswich, Mass; M0290S
Protocol: as §1, §2, §3, §4

[4] = tested on: Potato acid phosphatase (PoAP); experiment: Acid phosphatase reaction, potato acid phosphatase; type: in vitro ADME; details: Potato acid phosphatase pH 5, 90 minutes at 37° C.
Protocol: as §1
(§5) Potato acid phosphatase (PoAP) was obtained from Sigma, St. Louis, Miss. Cat #P1146 and human prostate acid phosphatase (HuPrAP) was obtained from MP Biochemicals, Solon, Ohio. Cat # 153872. The acid phosphatases were dissolved to provide a solution containing 0.5 units AP/μL using 50 mM sodium acetate pH 5, 0.2 mM MgCl2. The acid phosphatase reactions were assembled in 20 μL quantities containing: • 2 μL 10× acid phosphatase buffer (500 mM sodium acetate pH 5, 2 mM MgCl2) • 2 μL peptide stock (1 mg/mL) • 12 μL H2O • 4 μL acid phosphatase (0.5 or 2 units)
(§6) The reaction solutions were mixed gently and incubated for 90 minutes at 37° C. The reaction solutions were stored at −20° C. for later analysis. For analysis, 7.5 μL acid phosphatase reactions were diluted to 50 μL with 0.1% formic acid in water to a final concentration of 10 μM. The control reactions for enzyme activity were assembled and diluted to 10 mM p-nitrophenylphosphate in place of peptide. After incubation, the reactions were diluted with 0.1 mL of 100 mM borate buffer pH 9 and read at the absorbance of 405 nm to monitor p-nitrophenol appearance.

[5] = tested on: potato acid phosphatase (PoAP); experiment: Acid phosphatase reaction, potato acid phosphatase; type: in vitro ADME; details: potato acid phosphatase (PoAP); Potato acid phosphatase pH 5, 90 minutes at 37° C.
Protocol: as §1, §5, §6

[6] = biological target: T3, human prostate acid phosphatase (HuPrAP) (Homo sapiens, UniProt P15309); experiment: Acid phosphatase reaction, human prostate acid phosphatase; type: in vitro ADME; details: Human prostatic acid phosphatase pH 5, 90 minutes at 37° C.
T3 construct: purchased MP Biochemicals, Solon, Ohio 153872
T3 sequence (P15309 33-386): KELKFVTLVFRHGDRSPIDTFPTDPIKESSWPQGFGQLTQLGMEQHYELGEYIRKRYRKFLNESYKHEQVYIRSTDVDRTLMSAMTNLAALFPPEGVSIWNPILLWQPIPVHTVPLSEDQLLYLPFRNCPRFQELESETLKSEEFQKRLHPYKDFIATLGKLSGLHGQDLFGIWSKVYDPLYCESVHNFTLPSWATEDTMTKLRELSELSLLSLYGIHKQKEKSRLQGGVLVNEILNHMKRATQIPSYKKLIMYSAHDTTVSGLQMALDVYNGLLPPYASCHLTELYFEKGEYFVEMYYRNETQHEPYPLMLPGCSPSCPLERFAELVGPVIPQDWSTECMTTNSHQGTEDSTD
Protocol: as §1, §5, §6

[7] = 2.5 μg of peptide per loop, duodenal loops

T1 sequence (P19111 20-506): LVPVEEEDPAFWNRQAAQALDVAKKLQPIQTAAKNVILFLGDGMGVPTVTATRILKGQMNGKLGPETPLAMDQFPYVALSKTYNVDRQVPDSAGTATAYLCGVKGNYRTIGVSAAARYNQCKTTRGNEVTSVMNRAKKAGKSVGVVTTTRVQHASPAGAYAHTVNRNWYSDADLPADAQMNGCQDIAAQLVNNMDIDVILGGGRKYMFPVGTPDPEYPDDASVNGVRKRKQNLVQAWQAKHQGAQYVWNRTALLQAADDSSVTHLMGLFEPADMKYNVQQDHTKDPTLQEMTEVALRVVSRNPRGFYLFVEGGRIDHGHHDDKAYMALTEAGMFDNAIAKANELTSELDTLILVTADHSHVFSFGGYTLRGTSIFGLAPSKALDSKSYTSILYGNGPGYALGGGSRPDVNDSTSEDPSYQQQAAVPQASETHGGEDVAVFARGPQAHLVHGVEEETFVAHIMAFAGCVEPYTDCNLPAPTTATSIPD

Row | Compound | ED50 (μg/kg), acceleration of upper GI transit (female CD-1 mice) | Rate of HCO3^− accumulation [1, 7] | Rate of fluid accumulation [1, 7] | pH [1, 7] | Induction of fluid accumulation / duodenal fluid secretion (FIG. 2) ([1]; ligated rat duodenal loops) | Dephospho (%) [2] | remaining at 1.5 h, 0.1 mg/mL [3] | Dephospho (%) [4] | remaining at 1.5 h, 0.1 mg/mL [5] | Dephospho (%) [6] | remaining at 1.5 h, 0.1 mg/mL ([6]; human prostate acid phosphatase (HuPrAP))
1 | CCEFCCNPACTGCY [Peptide 4, GC-C agonist peptide with Glu in place of phosphoserine, used as comparator] | 2.06 µg/kg | 0.00008 Meq/min/cm | 2.0 µL/min/cm | 8.2 | promote duodenal fluid secretion | – | – | – | – | – | –
2 | CC(C)C[C@@H]1NC(=O)[C@H](COP(=O)(O)O)NC(=O)[C@@H]2CSSC[C@@H]3NC(=O)[C@H](C)NC(=O)[C@@H]4CCCN4C(=O)[C@H](CC(N)=O)NC(=O)[C@H](CSSC[C@H](N)C(=O)N2)NC(=O)[C@H](CSSC[C@@H](C(=O)N[C@@H](Cc2ccc(O)cc2)C(=O)O)NC(=O)CNC(=O)[C@H]([C@@H](C)O)NC3=O)NC1=O [Peptide 1, CCpSLCCNPACTGCY] (H-CC[pS]LCCNPACTGCY-OH; disulfide 1-6, 2-10, 5-13 (inferred); N-terminus and C-terminus assumed) | – | – | – | – | – | 100% | 0% | 22.1% | 77.8% | 6.2% | 93.8%
